pIC50: −log10 of the molar value.
How the values were obtained:
[1] = biological target: T1, porcine pancreatic lipase (Sus scrofa, UniProt P00591); assay: Lipase inhibitory activity measurement (4-UMO fluorescent substrate); assay type: biochemical; conditions: 4-UMO substrate, pH 8.0, 25° C., 30 minutes
T1 construct: purchased Sigma
T1 sequence (P00591 1-450): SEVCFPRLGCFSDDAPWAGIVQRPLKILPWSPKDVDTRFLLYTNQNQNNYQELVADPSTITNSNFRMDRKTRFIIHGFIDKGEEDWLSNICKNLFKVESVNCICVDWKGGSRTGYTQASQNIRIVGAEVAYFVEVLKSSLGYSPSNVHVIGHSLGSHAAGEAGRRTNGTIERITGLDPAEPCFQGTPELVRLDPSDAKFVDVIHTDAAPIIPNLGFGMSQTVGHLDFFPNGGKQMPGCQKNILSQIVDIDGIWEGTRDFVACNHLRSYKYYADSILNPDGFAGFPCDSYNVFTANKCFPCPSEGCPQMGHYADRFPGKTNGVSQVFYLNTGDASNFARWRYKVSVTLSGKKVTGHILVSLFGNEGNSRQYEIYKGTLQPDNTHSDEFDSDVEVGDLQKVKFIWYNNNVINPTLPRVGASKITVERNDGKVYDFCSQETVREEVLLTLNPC
Method: Lipase activity measurement was carried out by using oleic acid ester of fluorescent 4-methylumbelliferone (4-UMO) as a substrate, and measuring the fluorescence of 4-methylumbelliferone produced by reaction.
In the measurement, 13 mM Tris-HCl containing 150 mM NaCl and 1.36 mM CaCl2 was used as a buffer (pH 8.0). Substrate 4-UMO (Sigma) was prepared as 0.1M solution in DMSO and diluted 1000-fold with the buffer mentioned above. Similarly, lipase (porcine pancreatic lipase (Sigma)) was prepared as 400 U/ml solution in the buffer mentioned above and used in enzymatic measurement.
50 μl of the 4-UMO buffer solution and 25 μl of distilled water (or sample solution) were placed in a 96-well microplate and mixed at 25° C., followed by adding 25 μl of the lipase buffer solution to start enzyme reaction. After 30 minutes of reaction, 100 μl of 0.1M citric acid buffer (pH 4.2) was added to terminate the reaction, and the fluorescence of 4-methylumbelliferone (excitation wavelength: 355 nm, fluorescence wavelength: 460 nm) produced by the reaction was measured with a fluorescence plate reader (Labsystems, Fluoroskan Asent CF).
An inhibitory activity of the sample was determined as IC50, or the amount of the sample which gave […] of inhibition compared to the activity of control (distilled water).

[2] = Solubility of purified compound; assay type: physicochemical; conditions: purified white powder
From the text: The product obtained from oxidative polymerization reaction may be purified by conventional methods such as chromatography. […] Therefore, this compound is suitable for use in, for example, foods and/or beverages, and pharmaceutical drugs as an active lipase inhibitory ingredient for suppressing absorption of dietary lipids, thereby suppressing the rise of blood triglyceride or decreasing increased blood triglyceride.

For “epigallocatechin-3-O-gallate [EGCG, reference compound]”, the “lipase inhibitory activity IC50” value [1] was 0.16 µg/mL and the pIC50 ([1]; value in brackets) was 6.46.
With O=C(O[C@@H]1Cc2c(O)cc(O)cc2O[C@@H]1C1=CC(=O)C2(O)Oc3c(O)c(O)cc([C@H]4Oc5cc(O)cc(O)c5C[C@H]4OC(=O)c4cc(O)c(O)c(O)c4)c3C12)c1cc(O)c(O)c(O)c1 (some centres unmarked) [OTNG, oolongtheanin-3′-O-gallate] the solubility [2] was “soluble in water, methanol and DMSO”, the pIC50 [1] was 7.17 and the pIC50 ([1]; value in brackets) was 7.17.
